What all share (assay type): cell-based
In experiment [1] the test system is HIV-1LAI Wild Type. Kind of experiment: AlamarBlue viability assay, HIV-1LAI-infected MT4 cells. The settings on record: 10% FCS. The method in brief:
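MT4 cells infected with HIV-1LAI (MOI 0.01, supernatant infection) cultured 5 days at 37 °C with compounds in RPMI with 2% or 10% FCS, 1% DMSO final. AlamarBlue fluorescence after 3 h; EC50 as 50% protection relative to uninfected cells, CC50 from high-concentration cytotoxicity.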

For experiment [2], the system named is HIV-1NL4-3 Wild Type. Kind of experiment: Luminescence reduction assay, MT4 cells infected with HIV-1NL4-3 luciferase reporter virus, wild type. The settings on record: 2% FCS. In short, it runs like this: (§1)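 Compound dilution series in 1% DMSO, with 2% or 10% FCS, incubated 5 days at 37° C/5% CO2 with MT4 cells previously pellet-infected (2 h) by luciferase reporter NL4-3 virus, wild type or carrying RT resistance mutations. EC50 taken where luminescence from secreted luciferase falls to 50% of untreated infected control.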

Experiment [3] deals with HIV-1NL4-3 K103N-Y181C. Kind of experiment: Luminescence reduction assay, MT4 cells infected with HIV-1NL4-3 luciferase reporter virus, RT mutant K103N-Y181C. The method in brief:
as §1

Setting [4] is: Human immunodeficiency virus 1, MT4, MT4 cells.
[5] abbreviates: Human immunodeficiency virus 1, MT4, read-out: EC50 (μM) MT4 Cells HIV-1NL4-3 K103N-Y181C 2% FCS, MT4 cells, HIV-1NL4-3 K103N-Y181C, 2% FCS.

Like-named read-outs stand apart in the source and are kept apart here.

For `N#Cc1cc(OC(F)(F)F)cc(-c2cc(C(=O)N3CCNC(=O)C3)nn2-c2cccnc2)c1` [Example 89, 3-{3-[(3-Oxopiperazin-1-yl)carbonyl]-1-(pyridin-3-yl)-1H-pyrazol-5-yl}-5-(trifluoromethoxy)benzonitrile], the half-maximal effective concentration (EC50) in experiment [1] (setting [4]) was 0.129 µM; in experiment [2] (setting [4]) it was 0.258 µM; in experiment [3] (setting [5]) it was 0.523 µM.
Turning to `O=C1CN(C(=O)c2cc(-c3ccnc(Cl)c3)n(-c3ccc(F)c(Cl)c3)n2)CN1` [Example 112, 1-{[1-(3-Chloro-4-fluorophenyl)-5-(2-chloropyridin-4-yl)-1H-pyrazol-3-yl]carbonyl}imidazolidin-4-one], the concentration giving a half-maximal response (EC50) in experiment [1] (setting [4]) worked out at 0.079 µM; in experiment [2] (setting [4]), 0.016 µM; in experiment [3] (setting [5]), 0.03 µM.
Taken in the same sequence, the figures for `O=C1CN(C(=O)c2cc(-c3ccnc(Cl)c3)n(-c3ccc(F)c(Cl)c3)n2)CCN1` [Example 113, 4-{[1-(3-Chloro-4-fluorophenyl)-5-(2-chloropyridin-4-yl)-1H-pyrazol-3-yl]carbonyl}piperazin-2-one] were 0.233 µM, 0.025 µM and 0.298 µM.
As to `O=C(c1cc(-c2cc(F)cc(Cl)c2)n(-c2cccnc2)n1)N1CC[S+]([O-])C1` (racemic) [Example 6, [5-(3-Chloro-5-fluorophenyl)-1-(pyridin-3-yl)-1H-pyrazol-3-yl](1-oxido-1,3-thiazolidin-3-yl)methanone], the EC50 in experiment [1] (MT4 cells) was determined as 0.201 µM; in experiment [2] (MT4 cells), 0.054 µM; in experiment [3] (read-out: EC50 (μM) MT4 Cells HIV-1NL4-3 K103N-Y181C 2% FCS, MT4 cells, HIV-1NL4-3 K103N-Y181C, 2% FCS) it was 1.36 µM.
`O=C(c1cc(-c2cc(Cl)cc(OC(F)(F)F)c2)n(-c2ccc[n+](O)c2)n1)N1CCS(=O)(=O)C1` [Example 80, {5-[3-Chloro-5-(trifluoromethoxy)phenyl]-1-(1-oxidopyridin-3-yl)-1H-pyrazol-3-yl}(1,1-dioxido-1,3-thiazolidin-3-yl)methanone]: the concentration for a half-maximal effect (EC50) in experiment [1] (setting [4]) came to 2.79 µM; in experiment [2] (setting [4]), 0.164 µM; in experiment [3] (setting [5]) it was 0.075 µM.
For `O=C1CN(C(=O)c2cc(-c3cc(F)cc(Cl)c3)n(-c3cccc(Cl)n3)n2)CN1` [Example 2, 1-{[5-(3-Chloro-5-fluorophenyl)-1-(6-chloropyridin-2-yl)-1H-pyrazol-3-yl]carbonyl}imidazolidin-4-one], in that order: above 3.3 µM, 0.272 µM and above 3.3 µM.
For `O=C(c1cc(-c2cc(F)cc(OCC(F)(F)F)c2)n(-c2ccc[n+]([O-])c2)n1)N1CCS(=O)(=O)C1` [Example 75, (1,1-Dioxido-1,3-thiazolidin-3-yl) {5-[3-fluoro-5-(2,2,2-trifluoroethoxy)phenyl]-1-(1-oxidopyridin-3-yl)-1H-pyrazol-3-yl}methanone], the 50% effective concentration (EC50) is above 3.3 µM in experiment [1] (setting [4]), 0.272 µM in experiment [2] (setting [4]) and above 3.3 µM in experiment [3] (setting [5]).
On to `O=C1CN(C(=O)c2cc(-c3cc(F)cc(Br)c3)n(-c3cccnc3)n2)CCN1` [Example 91, 4-{[5-(3-Bromo-5-fluorophenyl)-1-(pyridin-3-yl)-1H-pyrazol-3-yl]carbonyl}piperazin-2-one], for which the EC50 in experiment [1] (setting [4]) amounted to 0.055 µM; in experiment [2] (setting [4]), 0.006 µM; in experiment [3] (setting [5]), 0.392 µM.
`O=C1CN(C(=O)c2cc(-c3cc(Br)cc(OC(F)(F)F)c3)n(-c3ccnc(C(F)(F)F)c3)n2)CN1` [Example 50, 1-({5-[3-Bromo-5-(trifluoromethoxy)phenyl]-1-[2-(trifluoromethyl)pyridin-4-yl]-1H-pyrazol-3-yl}carbonyl)imidazolidin-4-one]: the EC50 in experiment [1] (setting [4]) was found to be 1.86 µM; in experiment [2] (setting [4]), 0.102 µM; in experiment [3] (setting [5]) it was 0.167 µM.
Taken in the same sequence, the figures for `Cc1cc(-n2nc(C(=O)N3CNC(=O)C3)cc2-c2cc(Br)cc(OC(F)(F)F)c2)ccn1` [Example 53, 1-({5-[3-Bromo-5-(trifluoromethoxy)phenyl]-1-(2-methylpyridin-4-yl)-1H-pyrazol-3-yl}carbonyl)imidazolidin-4-one] were 0.302 µM, 0.023 µM and 0.008 µM.
Taken in the same sequence, the figures for `Cc1cc(-n2nc(C(=O)N3CCNC(=O)C3)cc2-c2cc(F)cc(Cl)c2)ccn1` [Example 22, 4-{[5-(3-Chloro-5-fluorophenyl)-1-(2-methylpyridin-4-yl)-1H-pyrazol-3-yl]carbonyl}piperazin-2-one] were 3.18 µM, 0.375 µM and above 3.3 µM.
Taken in the same sequence, the figures for `Cc1cc(-n2nc(C(=O)N3CCSC3)cc2-c2cc(F)cc(Cl)c2)ccn1` [Example 23, [5-(3-Chloro-5-fluorophenyl)-1-(2-methylpyridin-4-yl)-1H-pyrazol-3-yl](1,3-thiazolidin-3-yl)methanone] were above 3.3 µM, 0.439 µM and above 3.3 µM.
Turning to `O=C(c1cc(-c2cc(F)cc(Cl)c2)n(-c2ccnc(C(F)(F)F)c2)n1)N1CC[S+]([O-])C1` (stereo not drawn) [Example 19, {5-(3-Chloro-5-fluorophenyl)-1-[2-(trifluoromethyl)pyridin-4-yl]-1H-pyrazol-3-yl}(1-oxido-1,3-thiazolidin-3-yl)methanone], the EC50 in experiment [1] (setting [4]) was 2.5 µM; in experiment [2] (setting [4]), 0.152 µM; in experiment [3] (setting [5]) it was above 3.3 µM.
`COc1cncc(-c2cc(C(=O)N3CCNC(=O)C3)nn2-c2ccc(F)c(Cl)c2)c1` [Example 103, 4-{[1-(3-Chloro-4-fluorophenyl)-5-(5-methoxypyridin-3-yl)-1H-pyrazol-3-yl]carbonyl}piperazin-2-one]: the figures for the EC50 in experiment [1] (setting [4]), in experiment [2] (setting [4]) and in experiment [3] (setting [5]) were 0.785 µM, 0.205 µM and 0.375 µM, respectively.
Taken in the same sequence, the figures for `O=C1CN(C(=O)c2cc(-c3cncc(F)c3)n(-c3ccc(F)c(Cl)c3)n2)CN1` [Example 98, 1-{[1-(3-Chloro-4-fluorophenyl)-5-(5-fluoropyridin-3-yl)-1H-pyrazol-3-yl]carbonyl}imidazolidin-4-one] were 0.056 µM, 0.018 µM and 0.032 µM.
For `COc1cc(OC(F)(F)F)cc(-c2cc(C(=O)N3CCNC(=O)C3)nn2-c2cccnc2)c1` [Example 85, 4-({5-[3-Methoxy-5-(trifluoromethoxy)phenyl]-1-(pyridin-3-yl)-1H-pyrazol-3-yl}carbonyl)piperazin-2-one], in that order: 0.302 µM, 0.05 µM and 0.123 µM.
Taken in the same sequence, the figures for `Cc1ccc(-n2nc(C(=O)N3CNC(=O)C3)cc2-c2cc(Br)cc(OC(F)(F)F)c2)cn1` [Example 46, 1-({5-[3-Bromo-5-(trifluoromethoxy)phenyl]-1-(6-methylpyridin-3-yl)-1H-pyrazol-3-yl}carbonyl)imidazolidin-4-one] were 0.097 µM, 0.007 µM and 0.007 µM.
Take `O=C1CN(C(=O)c2cc(-c3cc(Br)cc(OC(F)(F)F)c3)n(-c3cccc(Cl)n3)n2)CN1` [Example 27, 1-({5-[3-Bromo-5-(trifluoromethoxy)phenyl]-(6-chloropyridin-2-yl)-1H-pyrazol-3-yl}carbonyl)imidazolidin-4-one]: the EC50 was above 3.3 µM in experiment [1] (setting [4]), 0.098 µM in experiment [2] (setting [4]) and 0.114 µM in experiment [3] (setting [5]).
Taken in the same sequence, the figures for `O=C1CN(C(=O)c2cc(-c3cc(F)cc(Cl)c3)n(-c3cccnc3)n2)CN1` [Example 3, 1-{[5-(3-Chloro-5-fluorophenyl)-1-(pyridin-3-yl)-1H I-pyrazol-3-yl]carbonyl}imidazolidin-4-one] were 0.028 µM, 0.006 µM and 0.067 µM.
For `O=C1CN(C(=O)c2cc(-c3cncc(C(F)(F)F)c3)n(-c3cccc(Cl)c3)n2)CCN1` [Example 109, 4-({1-(3-Chlorophenyl)-5-[5-(trifluoromethyl)pyridin-3-yl]-1H-pyrazol-3-yl}carbonyl)piperazin-2-one], in that order: 0.246 µM, 0.232 µM and 0.768 µM.
For `O=C1CN(C(=O)c2cc(-c3cc(F)cc(Cl)c3)n(-c3ccncc3)n2)CN1` [Example 13, 1-{[5-(3-Chloro-5-fluorophenyl)-1-(pyridin-4-yl)-1H-pyrazol-3-yl]carbonyl}imidazolidin-4-one], in that order: 1.34 µM, 0.323 µM and 0.88 µM.
On to `COc1cc(-n2nc(C(=O)N3CNC(=O)C3)cc2-c2cc(F)cc(Cl)c2)ccn1` [Example 25, 1-{[5-(3-Chloro-5-fluorophenyl)-1-(2-methoxypyridin-4-yl)-1H-pyrazol-3-yl]carbonyl}imidazolidin-4-one], for which the EC50 stood at 0.011 µM in experiment [1] (setting [4]), 0.004 µM in experiment [2] (setting [4]) and 0.04 µM in experiment [3] (setting [5]).
For `O=C(c1cc(-c2cc(F)cc(OC(F)(F)F)c2)n(-c2ccnc(Cl)c2)n1)N1CCSC1` [Example 104, {1-(2-Chloropyridin-4-yl)-5-[3-fluoro-5-(trifluoromethoxy)phenyl]-1H-pyrazol-3-yl}(1,3-thiazolidin-3-yl)methanone], in that order: above 3.3 µM, 0.58 µM and at least 3.3 µM.
For `O=C(c1cc(-c2cc(Cl)cc(OC(F)(F)F)c2)n(-c2cccnc2)n1)N1CC[S+]([O-])C1` (racemic) [Example 78, {5-[3-Chloro-5-(trifluoromethoxy)phenyl]-1-(pyridin-3-yl)-1H-pyrazol-3-yl}(1-oxido-1,3-thiazolidin-3-yl)methanone], in that order: 0.367 µM, 0.078 µM and 0.277 µM.

The values are drawn from patent US9296720B2, “Carboxamide-substituted heteroaryl-pyrazoles and the use thereof” (AiCuris GmbH & Co. KG, priority 2011, dated 2016).
